From patent publication US8802865B2 (Janssen Pharmaceutica, NV, priority 2006, dated 2014)

Assays:
ventral prostate = experiment: Ventral Prostate Weight in vivo Assay (inhibition of testosterone-enhanced tissue weight); parameters: key: “active” in the Table below if the non weight adjusted prostate weight was ≦40 mg or the % Inhibition prostate weight, body weight adjusted was ≧40% @ 2 mg/day dosage; listed herein as “inactive” as they did not meet the specified criteria defined above; details: castrated male Sprague Dawley rats, test compound usually orally once daily with testosterone propionate s.c.; ventral prostate wet weight; criteria at 2 mg/day dosage
Method: (§1) Ventral Prostate and Levator Ani Weight in vivo Assay
(§2) Immature (approximately 50 g) castrated male Sprague Dawley rats (Charles River) were treated once daily for five days with test compound (usually given orally at 40 mg/kg in a volume of 0.3 mL, in 30% cyclodextrin or 0.5% methylcellulose vehicle) and with testosterone propionate (given subcutaneously by injection at the nape of the neck at 2 mg/kg, in a volume of 0.1 mL in sesame oil). On the sixth day, the rats were euthanized by asphyxiation in carbon dioxide. Ventral prostates and levator ani were removed and their wet weights determined. Test compound activity was determined as the percent inhibition of testosterone-enhanced tissue weights, with a vehicle-treated control group set to zero percent and a testosterone alone-treated control group set to 100%.
(§3) Mature (150- to 200-g) castrated male Sprague Dawley rats (Charles River) are similarly tested according to the procedure described above. The rats were dosed for two weeks, with 0.4 mg/kg testosterone propionate used as the positive control.
(§4) Representative compounds of the present invention were tested according to the procedure described above, with results as listed in Table 3 below. For effect on prostate—i.e. an antagonist—a test compound is listed as “active” in the Table below if the non weight adjusted prostate weight was ≦40 mg or the % Inhibition prostate weight, body weight adjusted was ≧40% @ 2 mg/day dosage. For effect on levator ani—i.e. an agonist—a test compound is listed as “active” in the Table below if the non weight adjusted levator ani weight was ≧40 mg or the % Stimulation levator ani weight, body weight adjusted was ≧40% at 2 mg/day dosage.

levator ani [1] = experiment: Levator Ani Weight in vivo Assay (stimulation of levator ani weight); parameters: key: “active” in the Table below if the non weight adjusted levator ani weight was ≧40 mg or the % Stimulation levator ani weight, body weight adjusted was ≧40% at 2 mg/day dosage; listed herein as “inactive” as they did not meet the specified criteria defined above; details: castrated male Sprague Dawley rats, test compound usually orally once daily with testosterone propionate s.c.; levator ani wet weight; criteria at 2 mg/day dosage
Method: as §1, §2, §3, §4

levator ani [2] = experiment: as above; parameters: key: “active” in the Table below if the non weight adjusted prostate weight was ≦40 mg or the % Inhibition prostate weight, body weight adjusted was ≧40% @ 2 mg/day dosage; listed herein as “inactive” as they did not meet the specified criteria defined above; details: castrated male Sprague Dawley rats, test compound usually orally once daily with testosterone propionate s.c.; levator ani wet weight; criteria at 2 mg/day dosage
Method: as §1, §2, §3, §4

Compound	Prostate antagonist (ventral prostate)	L.A. agonist (levator ani [1])	L.A. agonist (levator ani [2])
N#CCC(O)(c1nc2cc(Cl)c(Cl)cc2[nH]1)C(F)(F)F (stereo not shown) [Compound 7, 3-(5,6-Dichloro-1H-benzoimidazol-2-yl)-4,4,4-trifluoro-3-hydroxy-butyronitrile]	inactive	active	–
C#CCC(O)(c1nc2cc(Cl)c(Cl)cc2n1C)C(F)(F)F (single isomer, unassigned; (-)) [Compound 37, (−)-Enantiomer of 2-(5,6-Dichloro-1-methyl-1H-benzoimidazol-2-yl)-1,1,1-trifluoro-pent-4-yn-2-ol]	inactive	active	–
C=CCC(O)(c1nc2cc(C#N)c(C(F)(F)F)cc2[nH]1)C(F)(F)F (stereo not shown) [Compound 38, 2-(1-Hydroxy-1-trifluoromethyl-but-3-enyl)-6-trifluoromethyl-1H-benzoimidazole-5-carbonitrile]	active	active	–
C=C=CC(O)(c1nc2cc(Cl)c(Cl)cc2[nH]1)C(F)(F)F (stereo not shown) [Compound 3, 2-(5,6-Dichloro-1H-benzoimidazol-2-yl)-1,1,1-trifluoro-penta-3,4-dien-2-ol]	active	active	–
FC(F)(F)C1(c2nc3cc(Cl)c(Cl)cc3[nH]2)CCCO1 (stereo not shown) [Compound 46, 5,6-Dichloro-2-(2-trifluoromethyl-tetrahydro-furan-2-yl)-1H-benzoimidazole]	active	active	–
C/C=C\C(O)(c1nc2cc(Cl)c(Cl)cc2[nH]1)C(F)(F)F (stereo not drawn) [Compound 15, 2-(5,6-Dichloro-1H-benzoimidazol-2-yl)-1,1,1-trifluoro-cis-pent-3-en-2-ol]	active	active	–
C#CCC(O)(c1nc2cc(Cl)c(Cl)cc2[nH]1)C(F)(F)F (stereo not shown) [Compound 2, 2-(5,6-Dichloro-1H-benzoimidazol-2-yl)-1,1,1-trifluoro-pent-4-yn-2-ol]	active	active	–
C=C=CC(O)(c1nc2cc(Cl)c(Cl)cc2[nH]1)C(F)(F)F (single isomer, unassigned; (+)) [Compound 31, (+)-Enantiomer of 2-(5,6-Dichloro-1H-benzoimidazol-2-yl)-1,1,1-trifluoro-penta-3,4-dien-2-ol]	active	active	–
C=CC(O)(c1nc2cc(Cl)c(Cl)cc2[nH]1)C(F)(F)F (stereo not shown) [Compound 4, 2-(5,6-Dichloro-1H-benzoimidazol-2-yl)-1,1,1-trifluoro-but-3-en-2-ol]	active	active	–
C=CC(O)(c1nc2cc(Cl)c(Cl)cc2[nH]1)C(F)(F)F (single isomer, unassigned; (+)) [Compound 43, (+)-2-(5,6-dichloro-1H-benzoimidazol-2-yl)-1,1,1-trifluoro-but-3-en-2-ol]	inactive	active	–
OC(CC#Cc1ccccc1)(c1nc2cc(Cl)c(Cl)cc2[nH]1)C(F)(F)F (stereo not shown) [Compound 34, 2-(5,6-Dichloro-1H-benzoimidazol-2-yl)-1,1,1-trifluoro-5-phenyl-pent-4-yn-2-ol]	inactive	–	inactive
FC(F)(F)C1(c2nc3cc(Cl)c(Cl)cc3[nH]2)C=CCO1 (stereo not shown) [Compound 45, 5,6-Dichloro-2-(2-trifluoromethyl-2,5-dihydro-furan-2-yl)-1H-benzoimidazole]	inactive	active	–
C=C=CC(O)(c1nc2cc(Cl)c(Cl)cc2[nH]1)C(F)(F)F (single isomer, unassigned; (-)) [Compound 32, (−)-Enantiomer of 2-(5,6-Dichloro-1H-benzoimidazol-2-yl)-1,1,1-trifluoro-penta-3,4-dien-2-ol]	active	–	inactive
C=C=C(C)C(O)(c1nc2cc(Cl)c(Cl)cc2[nH]1)C(F)(F)F (stereo not shown) [Compound 6, 2-(5,6-Dichloro-1H-benzoimidazol-2-yl)-1,1,1-trifluoro-3-methyl-pent-3,4-dien-2-ol]	active	–	inactive
C#CCC(O)(c1nc2cc(C#N)c(C(F)(F)F)cc2[nH]1)C(F)(F)F (stereo not shown) [Compound 39, 2-(1-Hydroxy-1-trifluoromethyl-but-3-ynyl)-6-trifluoromethyl-1H-benzoimidazole-5-carbonitrile]	active	–	inactive
C=CC(O)(c1nc2cc(Cl)c(Cl)cc2[nH]1)C(F)(F)F (single isomer, unassigned; (-)) [Compound 44, (−)-2-(5,6-dichloro-1H-benzoimidazol-2-yl)-1,1,1-trifluoro-but-3-en-2-ol]	inactive	–	inactive
C=CCC(O)(c1nc2cc(Cl)c(Cl)cc2[nH]1)C(F)(F)F (single isomer, unassigned; (-)) [Compound 24, (−)-Enantiomer of 2-(5,6-Dichloro-1H-benzoimidazol-2-yl)-1,1,1-trifluoro-pent-4-en-2-ol]	active	–	inactive
